row,SMILES,melting point
1,COC(=O)c1nn(-c2ccccc2)c(=O)cc1-n1cc(-c2ccccc2)nn1 [Compound 6],240 to 248 °C
2,"N=CNNC(=O)c1nn(-c2ccccc2)c(=O)cc1Sc1ccccc1 [Compound 8, N^2-iminomethyl-6-oxo-4-phenylsulfanyl-1-phenyl-1,6-dihydropyridazin-3-carbohydrazide]",236 to 238 °C
3,Cc1noc(C)c1-c1nn(-c2ccccc2)c(=O)cc1Oc1ccccc1 [Compound 19],122 to 124 °C
4,O=c1cc(Oc2ccc(Cl)cc2)c(-c2nc[nH]n2)nn1-c1ccccc1 [Compound 15],235 to 240 °C
5,O=c1cc(Oc2ccccc2)c(-c2ccco2)nn1-c1ccccc1 [Compound 18],232 to 234 °C
6,O=c1cc(Oc2ccccc2)c(-c2cccnc2)nn1-c1ccccc1 [Compound 9],155 to 157 °C

# The next lines start with the values.
row,melting point,SMILES
1,210 to 212 °C,C#CCN(C)c1cc(=O)n(-c2ccc(Cl)cc2)nc1-c1nc[nH]n1 [Compound 82]
2,244 to 246 °C,O=c1cc(Nc2ccccc2)c(-c2nc[nH]n2)nn1-c1ccc(Cl)cc1 [Compound 64]
3,235 to 240 °C,COc1cc(=O)n(-c2ccccc2)nc1-c1nc[nH]n1 [Compound 31]
4,233 to 235 °C,O=c1cc(Nc2ccccc2)c(-c2nc[nH]n2)nn1-c1cccc(F)c1 [Compound 69]
5,257 to 258 °C,O=c1cc(Oc2ccccc2)c(-c2nc[nH]n2)nn1-c1cccc(C(F)(F)F)c1 [Compound 33]
6,80 to 82 °C,NNC(=O)c1nn(-c2ccccc2)c(=O)cc1Oc1ccccc1 [Compound 76]
7,146 to 148 °C,CCCc1cn(-c2cc(=O)n(-c3ccccc3)nc2C(=O)OC)nn1 [Compound 24]

# — patent US9371290B2, “Pyridazinone compounds” (BIOTIE THERAPIES CORPORATION, priority 2011, dated 2016)
